This is an account of results in ChEMBL document CHEMBL4811221, “Diosgenin Derivatives as Potential Antitumor Agents: Synthesis, Cytotoxicity, and Mechanism of Action” (J Nat Prod, 2021).

Test [1] relates to A549. The test can be described thus: Cytotoxicity against human A549 cells assessed as cell growth inhibition measured after 24 hrs by MTT assay. It is filed as functional, cell-based. The note with it: A549, 24 h. In general terms: Tetrazolium assays rely on reduction of a dye to a coloured formazan, in cell work by metabolically active cells.
Test [2] has as its system MCF7. The test can be described thus: Cytotoxicity against human MCF7 cells assessed as cell growth inhibition measured after 24 hrs by MTT assay. The test is classed as functional, cell-based. Particulars: MCF7, 24 h.
The subject of test [3] is HepG2. The test can be described thus: Cytotoxicity against human HepG2 cells assessed as cell growth inhibition measured after 24 hrs by MTT assay. The test is classed as functional, cell-based. The note with it: HepG2, 24 h.
For test [4], the system named is L02. The test can be described thus: Cytotoxicity against human L02 cells assessed as cell growth inhibition measured after 24 hrs by MTT assay. Particulars: L02, 24 h. It is filed as cell-based.

Usually IC50 stands for the concentration that inhibits the measured activity by half.

SMILES strings stand for the structures.

As to `Cc1ccc(C[N+]2(Cc3ccc(C)cc3)CCN(C(=O)CCC(=O)O[C@H]3CC[C@@]4(C)C(=CC[C@H]5[C@@H]6C[C@@H]7O[C@]8(CC[C@@H](C)CO8)[C@@H](C)[C@@H]7[C@@]6(C)CC[C@@H]54)C3)CC2)cc1`, the IC50 is 3.6 µM in test [1], > 10 µM in test [2], 6.1 µM in test [3] and 18.4 µM in test [4].

On to `C[C@@H]1CC[C@@]2(OC1)O[C@H]1C[C@H]3[C@@H]4CC=C5C[C@@H](OC(=O)CCCC(=O)N6CCNCC6)CC[C@]5(C)[C@H]4CC[C@]3(C)[C@H]1[C@@H]2C`, for which the 50% inhibitory concentration (IC50) in test [1] was 3.2 µM; in test [2], 6 µM; in test [3] it was 2 µM; in test [4], 14.8 µM.

Turning to `COc1ccc(C[N+]2(Cc3ccc(OC)cc3)CCN(C(=O)CCC(=O)O[C@H]3CC[C@@]4(C)C(=CC[C@H]5[C@@H]6C[C@@H]7O[C@]8(CC[C@@H](C)CO8)[C@@H](C)[C@@H]7[C@@]6(C)CC[C@@H]54)C3)CC2)cc1`, the half-maximal inhibitory concentration (IC50) is 5.7 µM in test [1], 9.3 µM in test [2], 9.9 µM in test [3] and 23.3 µM in test [4].
